ChEMBL document CHEMBL4422665, “Design, synthesis and algicides activities of thiourea derivatives as the novel scaffold aldolase inhibitors” (Bioorg Med Chem, 2019)
In brackets after ≈: the same amount, converted by molar mass.

Assays:
[1] = molecular target: T1, Fructose-bisphosphate aldolase class 2 (Synechocystis sp. (strain PCC 6803 / Kazusa)) (UniProt Q55664); assay: (§1) Inhibition of recombinant Synechocystis sp. PCC 6803 FBA2 expressed in Escherichia coli BL21 (DE3) using FBP as substrate measured over 5 mins; parameters: concentration or dose not given beside the values
T1 sequence (whole entry): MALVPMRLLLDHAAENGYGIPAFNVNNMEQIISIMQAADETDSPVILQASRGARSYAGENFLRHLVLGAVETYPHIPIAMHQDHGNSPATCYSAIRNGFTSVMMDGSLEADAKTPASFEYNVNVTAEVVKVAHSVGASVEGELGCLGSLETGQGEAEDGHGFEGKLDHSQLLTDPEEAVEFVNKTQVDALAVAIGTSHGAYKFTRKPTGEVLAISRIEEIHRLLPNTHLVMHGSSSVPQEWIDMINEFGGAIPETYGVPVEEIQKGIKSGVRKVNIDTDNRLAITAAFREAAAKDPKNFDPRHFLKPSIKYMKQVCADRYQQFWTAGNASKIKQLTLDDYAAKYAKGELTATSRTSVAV

[2] = Lipophilicity, log P of the compound; format: physicochemical; conditions: octanol/water
[3] = Solubility of the compound; format: physicochemical
[4] = molecular target: T2, Fructose-bisphosphate aldolase class 2 (Synechocystis sp. (strain PCC 6803 / Kazusa), UniProt Q55664); assay: as §1
T2 sequence (Q55664 whole entry): T1 sequence (whole entry)

[5] = test system: Synechocystis sp. PCC 6803; assay: Algicidal activity against wild-type Synechocystis sp. PCC 6803 after 24 hrs by microbroth dilution method; format: functional, organism-based
[6] = molecular target: Fructose-bisphosphate aldolase class 2 (Synechocystis sp. (strain PCC 6803 / Kazusa), UniProt Q55664, S50A); assay: Inhibition of recombinant Synechocystis sp. PCC 6803 FBA2 S50A mutant expressed in Escherichia coli BL21 (DE3) using FBP as substrate measured over 5 mins
Sequence of Fructose-bisphosphate aldolase class 2 (Synechocystis sp. (strain PCC 6803 / Kazusa), UniProt Q55664, S50A) (Q55664 2-359 S50A limits assumed): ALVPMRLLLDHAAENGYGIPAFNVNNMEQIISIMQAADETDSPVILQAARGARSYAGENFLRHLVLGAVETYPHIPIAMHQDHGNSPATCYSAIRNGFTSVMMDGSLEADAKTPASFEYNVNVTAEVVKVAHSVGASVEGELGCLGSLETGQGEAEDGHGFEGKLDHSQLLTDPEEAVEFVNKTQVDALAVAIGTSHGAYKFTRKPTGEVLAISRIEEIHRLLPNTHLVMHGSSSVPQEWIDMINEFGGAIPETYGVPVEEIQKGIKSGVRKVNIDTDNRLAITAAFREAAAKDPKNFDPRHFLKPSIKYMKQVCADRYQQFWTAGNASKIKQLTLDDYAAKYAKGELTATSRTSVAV

[7] = molecular target: Fructose-bisphosphate aldolase class 2 (Synechocystis sp. (strain PCC 6803 / Kazusa), UniProt Q55664, R51A); assay: Inhibition of recombinant Synechocystis sp. PCC 6803 FBA2 R51A mutant expressed in Escherichia coli BL21 (DE3) using FBP as substrate measured over 5 mins
Sequence of Fructose-bisphosphate aldolase class 2 (Synechocystis sp. (strain PCC 6803 / Kazusa), UniProt Q55664, R51A) (Q55664 2-359 R51A limits assumed): as the sequence (Q55664 2-359 S50A limits assumed) above, with A49S, R50A counted along it

[8] = molecular target: Fructose-bisphosphate aldolase class 2 (Synechocystis sp. (strain PCC 6803 / Kazusa), UniProt Q55664, S55A); assay: Inhibition of recombinant Synechocystis sp. PCC 6803 FBA2 S55A mutant expressed in Escherichia coli BL21 (DE3) using FBP as substrate measured over 5 mins
Sequence of Fructose-bisphosphate aldolase class 2 (Synechocystis sp. (strain PCC 6803 / Kazusa), UniProt Q55664, S55A) (Q55664 2-359 S55A limits assumed): as the sequence (Q55664 2-359 S50A limits assumed) above, with A49S, S54A counted along it

[9] = molecular target: Fructose-bisphosphate aldolase class 2 (Synechocystis sp. (strain PCC 6803 / Kazusa), UniProt Q55664, N275A); assay: Inhibition of recombinant Synechocystis sp. PCC 6803 FBA2 N275A mutant expressed in Escherichia coli BL21 (DE3) using FBP as substrate measured over 5 mins
Sequence of Fructose-bisphosphate aldolase class 2 (Synechocystis sp. (strain PCC 6803 / Kazusa), UniProt Q55664, N275A) (Q55664 2-359 N275A limits assumed): as the sequence (Q55664 2-359 S50A limits assumed) above, with A49S, N274A counted along it

[10] = molecular target: Fructose-bisphosphate aldolase class 2 (Synechocystis sp. (strain PCC 6803 / Kazusa), UniProt Q55664, D277A); assay: Inhibition of recombinant Synechocystis sp. PCC 6803 FBA2 D277A mutant expressed in Escherichia coli BL21 (DE3) using FBP as substrate measured over 5 mins
Sequence of Fructose-bisphosphate aldolase class 2 (Synechocystis sp. (strain PCC 6803 / Kazusa), UniProt Q55664, D277A) (Q55664 2-359 D277A limits assumed): as the sequence (Q55664 2-359 S50A limits assumed) above, with A49S, D276A counted along it

[11] = molecular target: Fructose-bisphosphate aldolase class 2 (Synechocystis sp. (strain PCC 6803 / Kazusa), UniProt Q55664, T278A); assay: Inhibition of recombinant Synechocystis sp. PCC 6803 FBA2 T278A mutant expressed in Escherichia coli BL21 (DE3) using FBP as substrate measured over 5 mins
Sequence of Fructose-bisphosphate aldolase class 2 (Synechocystis sp. (strain PCC 6803 / Kazusa), UniProt Q55664, T278A) (Q55664 2-359 T278A limits assumed): as the sequence (Q55664 2-359 S50A limits assumed) above, with A49S, T277A counted along it

[12] = molecular target: Fructose-bisphosphate aldolase class 2 (Synechocystis sp. (strain PCC 6803 / Kazusa), UniProt Q55664, R281A); assay: Inhibition of recombinant Synechocystis sp. PCC 6803 FBA2 R281A mutant expressed in Escherichia coli BL21 (DE3) using FBP as substrate measured over 5 mins
Sequence of Fructose-bisphosphate aldolase class 2 (Synechocystis sp. (strain PCC 6803 / Kazusa), UniProt Q55664, R281A) (Q55664 2-359 R281A limits assumed): as the sequence (Q55664 2-359 S50A limits assumed) above, with A49S, R280A counted along it

[13] = molecular target: Fructose-bisphosphate aldolase class 2 (Synechocystis sp. (strain PCC 6803 / Kazusa), UniProt Q55664, R302A); assay: Inhibition of recombinant Synechocystis sp. PCC 6803 FBA2 R302A mutant expressed in Escherichia coli BL21 (DE3) using FBP as substrate measured over 5 mins
Sequence of Fructose-bisphosphate aldolase class 2 (Synechocystis sp. (strain PCC 6803 / Kazusa), UniProt Q55664, R302A) (Q55664 2-359 R302A limits assumed): as the sequence (Q55664 2-359 S50A limits assumed) above, with A49S, R301A counted along it

[14] = test system: Synechocystis sp. PCC 6803; assay: Selectivity ratio of Ki for recombinant Synechocystis sp. PCC 6803 FBA2 S50A mutant expressed in Escherichia coli BL21 (DE3) to Ki for recombinant Synechocystis sp. PCC 6803 FBA2 expressed in Escherichia coli BL21 (DE3)
[15] = test system: Synechocystis sp. PCC 6803; assay: Selectivity ratio of Ki for recombinant Synechocystis sp. PCC 6803 FBA2 R51A mutant expressed in Escherichia coli BL21 (DE3) to Ki for recombinant Synechocystis sp. PCC 6803 FBA2 expressed in Escherichia coli BL21 (DE3)
[16] = test system: Synechocystis sp. PCC 6803; assay: Selectivity ratio of Ki for recombinant Synechocystis sp. PCC 6803 FBA2 S55A mutant expressed in Escherichia coli BL21 (DE3) to Ki for recombinant Synechocystis sp. PCC 6803 FBA2 expressed in Escherichia coli BL21 (DE3)
[17] = test system: Synechocystis sp. PCC 6803; assay: Selectivity ratio of Ki for recombinant Synechocystis sp. PCC 6803 FBA2 N275A mutant expressed in Escherichia coli BL21 (DE3) to Ki for recombinant Synechocystis sp. PCC 6803 FBA2 expressed in Escherichia coli BL21 (DE3)
[18] = test system: Synechocystis sp. PCC 6803; assay: Selectivity ratio of Ki for recombinant Synechocystis sp. PCC 6803 FBA2 D277A mutant expressed in Escherichia coli BL21 (DE3) to Ki for recombinant Synechocystis sp. PCC 6803 FBA2 expressed in Escherichia coli BL21 (DE3)
[19] = test system: Synechocystis sp. PCC 6803; assay: Selectivity ratio of Ki for recombinant Synechocystis sp. PCC 6803 FBA2 T278A mutant expressed in Escherichia coli BL21 (DE3) to Ki for recombinant Synechocystis sp. PCC 6803 FBA2 expressed in Escherichia coli BL21 (DE3)
[20] = test system: Synechocystis sp. PCC 6803; assay: Selectivity ratio of Ki for recombinant Synechocystis sp. PCC 6803 FBA2 R281A mutant expressed in Escherichia coli BL21 (DE3) to Ki for recombinant Synechocystis sp. PCC 6803 FBA2 expressed in Escherichia coli BL21 (DE3)
[21] = test system: Synechocystis sp. PCC 6803; assay: Selectivity ratio of Ki for recombinant Synechocystis sp. PCC 6803 FBA2 R302A mutant expressed in Escherichia coli BL21 (DE3) to Ki for recombinant Synechocystis sp. PCC 6803 FBA2 expressed in Escherichia coli BL21 (DE3)
[22] = test system: Synechocystis sp. PCC 6803; assay: Algicidal activity against FBA2 over-expressing Synechocystis sp. PCC 6803 after 24 hrs by microbroth dilution method; format: functional, organism-based; conditions: Synechocystis sp. PCC 6803, 24 h
[23] = test system: Synechocystis sp. PCC 6803; assay: Selectivity ratio of EC50 for FBA2 over-expressing Synechocystis sp. PCC 6803 to EC50 for wild-type Synechocystis sp. PCC 6803; format: functional
[24] = Synechocystis sp. PCC 6803, 24 h, read-out: EC50

Structure (SMILES): O=C(NC(=S)Nc1ccccc1O)c1ccccc1
- inhibition [1]: 37%

Structure (SMILES): O[C@@H]1CC[C@@](O)(n2c(-c3ccccc3)nc3ncncc32)OC1
- logP [2]: 0.94
- solubility [3]: 0.73 mg/mL (≈ 2340 µM)

Structure (SMILES): O=C(NC(=S)NNC(=O)c1ccc(O)cc1O)c1ccccc1
- Ki [4]: 1.25 µM
- EC50 [5, 24]: 1.25 µM

Structure (SMILES): O=C(NC(=S)Nc1ccc([N+](=O)[O-])cc1)c1ccccc1
- inhibition [1]: 60%

Structure (SMILES): CCNCCc1ccccc1-c1ccccc1
- logP [2]: 4
- solubility [3]: 8.35 mg/mL (≈ 37100 µM)

Structure (SMILES): O=C(NC(=S)Nc1ccccc1Cl)c1ccccc1
- inhibition [1]: 30%

Structure (SMILES): Oc1cccc(COC2CC[C@@H](O)C(Cc3ccccc3)O2)c1 (stereo not given in full)
- logP [2]: 3.32
- solubility [3]: 0.2 mg/mL (≈ 636 µM)

Structure (SMILES): Cc1ccc(C(=O)NC(=S)Nc2ccc([N+](=O)[O-])cc2O)cc1
- Ki [4]: 5.5 µM

Structure (SMILES): O=C(NC(=S)Nc1cc([N+](=O)[O-])ccc1O)c1ccccc1
- Ki [4]: 9.1 µM

Structure (SMILES): O=C(NC(=S)Nc1cc([N+](=O)[O-])ccc1O)c1ccc(Cl)cc1
- Ki [4]: 9.1 µM

Structure (SMILES): O=C(NC(=S)NNC(=O)c1ccccc1O)c1ccc(F)cc1
- Ki [4]: 0.88 µM
- EC50 [5, 24]: 0.88 µM

Structure (SMILES): O=C(NNC(=S)NC(=O)c1ccccc1)c1cccc([N+](=O)[O-])c1
- Ki [4]: 1.87 µM
- EC50 [5]: 0.39 ppm

Structure (SMILES): O=C(O)c1cccc([C@@H]2CCC[C@@H]2c2ncc3nc[nH]c3n2)c1
- logP [2]: 2.96
- solubility [3]: 13.1 mg/mL (≈ 42600 µM)

Structure (SMILES): O=C(NC(=S)Nc1ccc(Br)cc1)c1ccccc1
- inhibition [1]: 42%

Structure (SMILES): O=C(NC(=S)Nc1ccc([N+](=O)[O-])cc1O)c1ccc([N+](=O)[O-])cc1
- Ki [4]: 1.9 µM
- Ki [6]: 3.9 µM
- Ki [7]: 3.3 µM
- Ki [8]: 3.4 µM
- Ki [9]: 37.9 µM
- Ki [10]: 4.6 µM
- Ki [11]: 87.5 µM
- Ki [12]: 144 µM
- Ki [13]: 24.4 µM
- Ratio Ki [14]: 2.1
- Ratio Ki [15]: 1.7
- Ratio Ki [16]: 2.1
- Ratio Ki [17]: 20
- Ratio Ki [18]: 2.4
- Ratio Ki [19]: 46.3
- Ratio Ki [20]: 76
- Ratio Ki [21]: 12.9

Structure (SMILES): O=C(NNC(=S)NC(=O)c1ccccc1)c1ccc([N+](=O)[O-])cc1
- Ki [4]: 2.8 µM
- EC50 [5, 24]: 2.7 µM

Structure (SMILES): O=C(NC(=S)NNC(=O)c1ccccc1O)c1ccccc1
- Ki [4]: 0.65 to 0.7 µM
- Ki [6]: 15.2 µM
- Ki [7]: 3.9 µM
- Ki [8]: 1 µM
- Ki [9]: 15.9 µM
- Ki [10]: 7.2 µM
- Ki [11]: 4.3 µM
- Ki [12]: 52.3 µM
- Ki [13]: 20.4 µM
- Ratio Ki [14]: 23.4
- Ratio Ki [15]: 6
- Ratio Ki [16]: 1.5
- Ratio Ki [17]: 24.5
- Ratio Ki [18]: 11
- Ratio Ki [19]: 6.6
- Ratio Ki [20]: 80.5
- Ratio Ki [21]: 31
- EC50 [22]: 4.98 µM
- EC50 [5, 24]: 0.28 µM
- Ratio EC50 [23]: 18

Structure (SMILES): O[C@H]1CO[C@@H](O)C(c2nc3ncncc3n2-c2ccccc2)C1 (stereo not given in full)
- logP [2]: 0.82
- solubility [3]: 0.44 mg/mL (≈ 1410 µM)

Structure (SMILES): O=CNC(=S)Nc1c(O)cc([N+](=O)[O-])cc1-c1ccccc1
- logP [2]: 2.48
- solubility [3]: 0.16 mg/mL (≈ 504 µM)

Structure (SMILES): O=C(NC(=S)Nc1ccc(O)cc1)c1ccccc1
- inhibition [1]: 22%

Structure (SMILES): c1ccc(-n2c(-n3cnc4ncncc43)nc3cncnc32)cc1
- logP [2]: 0.99
- solubility [3]: 0.29 mg/mL (≈ 923 µM)

Structure (SMILES): O=C(NC(=S)Nc1ccc([N+](=O)[O-])cc1O)c1ccc(-c2ccccc2)cc1
- Ki [4]: 2.5 µM

Structure (SMILES): O=C(NNC(=S)NC(=O)c1ccccc1)c1cccc(Br)c1
- Ki [4]: 3.1 µM
- EC50 [5]: 5.9 ppm

Structure (SMILES): O=C(NC(=S)Nc1ccc([N+](=O)[O-])cc1O)c1ccccc1
- logP [2]: 2.6
- solubility [3]: 0.18 mg/mL (≈ 567 µM)
- Ki [4]: 16.7 µM

Structure (SMILES): O=C(NNC(=S)NC(=O)c1ccccc1)c1ccc(F)cc1
- Ki [4]: 3.5 µM
- EC50 [5]: 8.2 ppm

Structure (SMILES): O=C(NC(=S)Nc1ccccc1[N+](=O)[O-])c1ccccc1
- inhibition [1]: 15%

Structure (SMILES): O=C(NNC(=S)NC(=O)c1ccccc1)c1ccc(Br)cc1
- Ki [4]: 5.2 µM
- EC50 [5]: 1.58 ppm

Structure (SMILES): O=C(NC(=S)NNC(=O)c1ccccc1O)c1ccc(Cl)cc1
- Ki [4]: 0.63 µM
- EC50 [5]: 0.98 ppm

Structure (SMILES): N[C@@H](Cc1ccc(O)cc1-c1ccccc1)c1ccccc1O
- logP [2]: 3.23
- solubility [3]: 6.35 mg/mL (≈ 20800 µM)

Structure (SMILES): O=C(NC(=S)Nc1ccc([N+](=O)[O-])cc1O)c1ccc(C(F)(F)F)cc1
- Ki [4]: 5.5 µM

Structure (SMILES): O=CNC(=S)Nc1cc(-c2ccccc2)c([N+](=O)[O-])cc1O
- logP [2]: 2.45
- solubility [3]: 0.16 mg/mL (≈ 504 µM)
